These results are taken from EPA's ToxValDB 9.5 (doi:10.2903/j.efsa.2011.2334).

The NOAEL is the highest tested level that showed no adverse finding.

Values after ≈ are worked out from the molar mass of the structure shown.

One data set has as its system Canidae. Conditions: oral, gavage, Dog Other.
Another data set concerns Oncorhynchus mykiss. The note with it: acute; duration: 96 hours; mortality.
A further data set concerns Colinus virginianus. The note with it: acute; oral; mortality.
In a further data set the test system is Anas platyrhynchos. Conditions: short-term; oral; feed; mortality.
Another data set has as its system Aleochara bilineata. Conditions: chronic/long-term; duration: 28 days; reproduction.
In the next data set the test system is Lepomis macrochirus. Conditions: acute; duration: 96 hours; mortality.

Consider `CN=C=S` [Methyl isothiocyanate], for which the NOAEL was 0.4 mg/kg-day in the data set with Canidae (subchronic, duration: 90 days, body weight); 0.44 mg/kg-day with Rattus norvegicus (chronic, duration: 2 years, oral, drinking water, hematological); 3 mg/kg-day with Rattus norvegicus (repeat dose other, oral, gavage, body weight). Further, the results for the LC50 in the data set with Oncorhynchus mykiss and in the data set on Anas platyrhynchos were 0.0531 mg/L (≈ 0.726 µM) and > 183 mg/kg-day, respectively. Besides, the LD50 was 119 mg/kg-day in the data set with Colinus virginianus and 147 mg/kg-day with Rattus norvegicus (acute, mortality).

`CNC(=S)[S-].[Na+]` [Metam-sodium]: the NOAEL in the data set on Canidae (chronic, duration: 1 years, M/F, hematological) was determined as 0.1 mg/kg-day; in the data set on Rattus norvegicus (developmental, F, development), 10 mg/kg-day. For the same compound, the LEL in the data set on Aleochara bilineata amounted to 608000 g/ha. Also, the values for the LC50 with Lepomis macrochirus and with Anas platyrhynchos were > 0.175 mg/L and > 324 mg/kg-day, respectively. This compound gave an LD50 with Colinus virginianus of 211 mg/kg-day.
